Target: H1047R PIK3CA enzyme (Homo sapiens, UniProt P42336, H1047R)
Experiment: ADP-Glo Biochemical PIK3CA Kinase Assay

H1047R PIK3CA enzyme, sequence (P42336 whole entry H1047R): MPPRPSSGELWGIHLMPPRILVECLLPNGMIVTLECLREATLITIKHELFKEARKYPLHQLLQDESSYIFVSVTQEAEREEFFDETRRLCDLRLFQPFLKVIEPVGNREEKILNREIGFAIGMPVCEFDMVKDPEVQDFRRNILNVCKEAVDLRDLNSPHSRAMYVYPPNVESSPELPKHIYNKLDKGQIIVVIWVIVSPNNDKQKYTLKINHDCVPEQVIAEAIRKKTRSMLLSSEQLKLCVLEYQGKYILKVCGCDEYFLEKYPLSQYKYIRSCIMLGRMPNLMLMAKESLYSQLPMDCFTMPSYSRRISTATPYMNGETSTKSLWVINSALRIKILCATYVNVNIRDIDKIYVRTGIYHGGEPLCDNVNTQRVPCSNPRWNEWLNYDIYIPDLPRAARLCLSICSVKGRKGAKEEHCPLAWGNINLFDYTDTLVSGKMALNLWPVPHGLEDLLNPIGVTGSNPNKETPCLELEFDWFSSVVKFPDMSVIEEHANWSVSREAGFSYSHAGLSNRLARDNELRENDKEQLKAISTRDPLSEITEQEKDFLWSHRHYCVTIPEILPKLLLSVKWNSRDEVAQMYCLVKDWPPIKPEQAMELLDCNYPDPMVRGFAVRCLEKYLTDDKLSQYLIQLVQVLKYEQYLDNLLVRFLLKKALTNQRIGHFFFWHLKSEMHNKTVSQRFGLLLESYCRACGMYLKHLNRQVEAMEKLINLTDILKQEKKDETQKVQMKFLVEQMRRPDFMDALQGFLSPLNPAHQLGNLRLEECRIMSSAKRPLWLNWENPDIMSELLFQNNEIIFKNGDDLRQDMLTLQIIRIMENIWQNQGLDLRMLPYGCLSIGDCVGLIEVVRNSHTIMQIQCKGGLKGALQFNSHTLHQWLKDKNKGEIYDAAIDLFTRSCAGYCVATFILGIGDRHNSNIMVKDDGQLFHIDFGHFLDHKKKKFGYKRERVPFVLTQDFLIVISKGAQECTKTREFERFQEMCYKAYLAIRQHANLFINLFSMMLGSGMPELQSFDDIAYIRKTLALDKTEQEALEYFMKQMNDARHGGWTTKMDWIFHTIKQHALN
H1047R PIK3CA enzyme, sequence (P27986 whole entry partner): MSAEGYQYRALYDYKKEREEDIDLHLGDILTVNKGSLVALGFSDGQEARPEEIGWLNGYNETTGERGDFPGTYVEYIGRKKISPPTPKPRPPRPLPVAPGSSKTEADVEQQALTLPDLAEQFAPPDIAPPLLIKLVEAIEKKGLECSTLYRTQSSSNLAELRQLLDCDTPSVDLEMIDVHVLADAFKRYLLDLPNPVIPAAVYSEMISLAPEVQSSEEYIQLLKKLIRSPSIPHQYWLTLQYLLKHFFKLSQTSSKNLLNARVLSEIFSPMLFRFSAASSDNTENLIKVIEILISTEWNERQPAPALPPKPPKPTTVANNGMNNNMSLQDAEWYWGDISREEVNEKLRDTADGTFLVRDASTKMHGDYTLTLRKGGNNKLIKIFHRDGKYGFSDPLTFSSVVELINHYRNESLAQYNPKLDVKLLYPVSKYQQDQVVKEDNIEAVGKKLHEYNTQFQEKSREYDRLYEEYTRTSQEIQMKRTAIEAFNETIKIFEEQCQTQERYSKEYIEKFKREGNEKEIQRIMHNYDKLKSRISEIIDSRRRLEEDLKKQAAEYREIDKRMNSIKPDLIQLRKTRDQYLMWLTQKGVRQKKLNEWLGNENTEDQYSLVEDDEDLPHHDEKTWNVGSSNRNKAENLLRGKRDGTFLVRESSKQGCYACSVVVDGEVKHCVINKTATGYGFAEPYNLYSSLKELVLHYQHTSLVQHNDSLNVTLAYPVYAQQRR

SMILES | IC50
O=C1N[C@H](c2cc(F)ccc2Cl)c2c(NC(=O)N3C[C@](O)(C(F)(F)F)c4ccccc43)cccc21 (single isomer, unassigned) [Compound I-2385] | 1000 to 10000 nM
CN1CCCC[C@H]1[C@@H]1NC(=O)c2cccc(NC(=O)c3cc(F)cc(C(F)(F)F)c3)c21 (racemic) [Compound I-1733] | 10000 to 100000 nM
O=C(Cc1n[nH]c2ccccc12)Nc1cc(Br)cc2c1C(c1cc(F)ccc1Cl)NC2=O (stereo not shown) [Compound I-955] | 10000 to 100000 nM
O=C(Nc1cccc2c1C(CN1CCCCC1)NC2=O)c1cc(F)cc(C(F)(F)F)c1 (stereo not shown) [Compound I-1678] | 10000 to 100000 nM
O=C1NC(c2cc(F)ccc2Cl)c2c(NC(=O)N3CCc4ccc(OC(F)(F)F)cc43)cccc21 (stereo not shown) [Compound I-2480] | 1000 to 10000 nM
O=C1NC(O)(c2cccc(F)c2F)c2c(NC(=O)c3csc4ccccc34)ccnc21 (stereo not shown) [Compound I-31] | 10000 to 100000 nM
CC(C)(C)C(=O)Nc1cc(Br)cc2c1C(c1cc(F)ccc1Cl)NC2=O (stereo not shown) [Compound I-1139] | 1000 to 10000 nM
O=C1N[C@@H](c2cc(F)ccc2Cl)c2c(NC(=O)[C@H]3C[C@@H](O)C[C@@H](C(F)(F)F)C3)cc(Br)cc21 (single isomer, unassigned) [Compound I-2273] | 10000 to 100000 nM
O=C1NC(c2cc(F)ccc2Cl)c2c(NC(=O)C3CCCc4ccccc4C3)cccc21 (mixture of isomers) [Compound I-2375] | 10000 to 100000 nM
O=C1N[C@@H](c2cc(F)ccc2Cl)c2c(NC(=O)[C@H]3CCC[C@@H](OC(F)(F)F)C3)cccc21 (single isomer, unassigned) [Compound I-2218] | 10000 to 100000 nM
N#Cc1cnn(-c2cc(NC(=O)N3C[C@H](O)c4cc(F)ccc43)c3c(c2)C(=O)N[C@H]3c2cc(F)ccc2Cl)c1 [Compound I-2403] | ≤ 100 nM
N#CC1CN(c2cc(NC(=O)c3cc(F)cc(C(F)(F)F)c3)c3c(n2)C(=O)NC3c2cc(F)ccc2Cl)C1 (stereo not shown) [Compound I-443] | ≤ 100 nM
CN1CC(C2NC(=O)c3cccc(NC(=O)c4cc(F)cc(C(F)(F)F)c4)c32)C1 (racemic) [Compound I-1832] | 10000 to 100000 nM
CC[C@@]1(O)CN(C(=O)Nc2cccc3c2[C@H](c2cc(F)ccc2Cl)NC3=O)c2ccc(F)cc21 (single isomer, unassigned) [Compound I-2463] | 1000 to 10000 nM
O=C1NC(CO)(c2cccc(F)c2)c2c1cccc2-c1nc2cc(C(F)(F)F)cc(F)c2[nH]1 (stereo not shown) [Compound I-2296] | 1000 to 10000 nM
Cc1ccccc1C1NC(=O)c2c(C(=O)N3CC(C#N)C3)ccc(NC(=O)c3nsc4ccccc34)c21 (stereo not shown) [Compound I-219] | 500 to 1000 nM

SMILES | IC50
O=C(Nc1cc(-c2cnn(-c3ncc(F)cn3)c2)cc2c1C(c1cc(F)ccc1Cl)NC2=O)c1cc(F)cc(C(F)(F)F)c1 (stereo not shown) [Compound I-1616] | ≤ 100 nM
O=C1NC(c2cc(F)ccc2Cl)c2c(NC(=O)N3CCCc4ccccc4C3)cccc21 (stereo not shown) [Compound I-2305] | 10000 to 100000 nM
Cc1c(F)cccc1C1NC(=O)c2cccc(NC(=O)c3nsc4ccccc34)c21 (stereo not shown) [Compound I-106] | 100 to 500 nM
[2H]C1(c2cc(F)ccc2Cl)NC(=O)c2cc(-c3ccc4ncnn4c3)cc(NC(=O)c3cc(F)cc(C(F)(F)F)c3)c21 (stereo not shown) [Compound I-1413] | ≤ 100 nM
Cc1ccccc1C1NC(=O)c2c(C(O)CO)ccc(NC(=O)c3csc4ccccc34)c21 (stereo not shown) [Compound I-120] | 100 to 500 nM
O=C(Nc1cccc2c1[C@H]([C@@H]1CCCCCN1)NC2=O)c1cc(F)cc(C(F)(F)F)c1 (single isomer, unassigned) [Compound I-2319] | 10000 to 100000 nM
Cc1ccccc1C1NC(=O)c2cc(CCO)cc(NC(=O)c3csc4ccccc34)c21 (stereo not shown) [Compound I-181, N-[6-(2-Hydroxyethyl)-3-(2-methylphenyl)-1-oxo-2,3-dihydro-1H-isoindol-4-yl]-1-benzothiophene-3-carboxamide] | ≤ 100 nM
CNc1cc(NC(=O)N2C[C@](O)(C(F)F)c3cc(F)ccc32)c2c(c1)C(=O)N[C@H]2c1cc(F)ccc1Cl (single isomer, unassigned) [Compound I-2678] | 1000 to 10000 nM
Cc1ccccc1C1NC(=O)c2cccc(NC(=O)N3CC(=O)Nc4ccccc43)c21 (stereo not shown) [Compound I-44] | 10000 to 100000 nM
CC[C@H](CC(=O)Nc1cccc2c1[C@@H](c1cc(F)ccc1Cl)NC2=O)[C@@H](C)C(F)(F)F (single isomer, unassigned) [Compound I-2338] | 10000 to 100000 nM
CC12CC3CC(F)(C1)CC(C(=O)Nc1cc(Br)cc4c1C(c1cc(F)ccc1Cl)NC4=O)(C3)C2 (stereo not shown) [Compound I-1635] | 100 to 500 nM
C[C@]1(O)CN(C(=O)Nc2cccc3c2[C@@H](c2cc(F)ccc2Cl)NC3=O)c2ccccc21 (single isomer, unassigned) [Compound I-2203] | 1000 to 10000 nM
N#Cc1cnc2c(F)cc(-c3cc(NC(=O)c4cc(F)cc(C(F)(F)F)c4)c4c(c3)C(=O)N[C@H]4c3cc(F)ccc3Cl)cn12 [Compound I-1856] | ≤ 100 nM
CC([C@H]1C[C@@H](O)CN1C(=O)Nc1cccc2c1C(c1cc(F)ccc1Cl)NC2=O)C(F)(F)F (single isomer, unassigned) [Compound I-2287] | 10000 to 100000 nM
O=C(Nc1cccc2c1C(C1CC1)NC2=O)c1cc(F)cc(C(F)(F)F)c1 (stereo not shown) [Compound I-259] | 10000 to 100000 nM
C[C@H]([C@H]1C[C@H](O)CN1C(=O)Nc1cccc2c1[C@H](c1cc(F)ccc1Cl)NC2=O)C(F)(F)F (single isomer, unassigned) [Compound I-2379] | 10000 to 100000 nM

Second part, the compound after the results:

IC50 | SMILES
100 to 500 nM | Cc1ncc(-c2cc(NC(=O)c3cc(F)cc(Cl)c3)c3c(n2)C(=O)NC3c2cc(F)ccc2Cl)cn1 (stereo not shown) [Compound I-460]
≤ 100 nM | O=C(Nc1cc(-c2cccnc2)cc2c1C(c1cc(F)ccc1Cl)NC2=O)c1cc(F)cc(C(F)(F)F)c1 (stereo not shown) [Compound I-888]
100 to 500 nM | O=C(Nc1cc(NC2=NC[C@H](C(F)(F)F)O2)cc2c1[C@H](c1cc(F)ccc1Cl)NC2=O)c1cc(F)cc(C(F)(F)F)c1 (single isomer, unassigned) [Compound I-2323]
≤ 100 nM | O=C(Nc1cc(C2COC2)cc2c1C(c1cc(F)ccc1Cl)NC2=O)c1cc(F)cc(C(F)(F)F)c1 (stereo not shown) [Compound I-420]
≤ 100 nM | O=C(Nc1cc(C#CC2(O)COC2)cc2c1C(c1cc(F)ccc1Cl)NC2=O)c1cc(F)cc(C(F)(F)F)c1 (stereo not shown) [Compound I-1154]
≤ 100 nM | O=C(Nc1cc(O)cc2c1C(c1cc(F)ccc1Cl)NC2=O)c1cc(F)cc(Cl)c1 (stereo not shown) [Compound I-383]
≤ 100 nM | O=C(Nc1cc(-c2cnc(-n3ccnc3)nc2)cc2c1C(c1cc(F)ccc1Cl)NC2=O)c1cc(F)cc(C(F)(F)F)c1 (stereo not shown) [Compound I-1482]
≤ 100 nM | COc1nccc(Oc2cc(NC(=O)c3cc(F)cc(C(F)(F)F)c3)c3c(c2)C(=O)NC3c2cc(F)ccc2Cl)n1 (stereo not shown) [Compound I-1148]
500 to 1000 nM | Cn1ccc(Nc2cc(NC(=O)c3cc(F)cc(C(F)(F)F)c3)c3c(c2)C(=O)N[C@@H]3c2cc(F)ccc2Cl)n1 [Compound I-1072]
≤ 100 nM | O=C1NCC(c2cc(NC(=O)c3cc(F)cc(C(F)(F)F)c3)c3c(c2)C(=O)NC3c2cc(F)ccc2Cl)O1 (stereo not shown) [Compound I-1359]
≤ 100 nM | O=C(Nc1cc(-c2cnc(C(F)(F)F)nc2)cc2c1C(c1cc(F)ccc1Cl)NC2=O)c1cc(F)cc(C(F)(F)F)c1 (stereo not shown) [Compound I-823]
≤ 100 nM | O=C(Nc1cc(-c2ccnc(C(=O)O)c2)cc2c1C(c1cc(F)ccc1Cl)NC2=O)c1cc(F)cc(C(F)(F)F)c1 (stereo not shown) [Compound I-2137]
1000 to 10000 nM | O=C(Nc1cc(Br)cc2c1C(c1cc(F)ccc1Cl)NC2=O)c1cc(F)cc(C2CCC2)c1 (stereo not shown) [Compound I-1351]
≤ 100 nM | O=C(Nc1cc(C2CC23CC3)cc2c1C(c1cc(F)ccc1Cl)NC2=O)c1cc(F)cc(C(F)(F)F)c1 (stereo not shown) [Compound I-1266]
≤ 100 nM | Cn1nccc1-c1cc(NC(=O)c2cc(F)cc(C(F)(F)F)c2)c2c(c1)C(=O)N[C@H]2c1cc(F)ccc1Cl [Compound I-1136]
≤ 100 nM | O=Cc1cc(NC(=O)c2cc(F)cc(C(F)(F)F)c2)c2c(c1)C(=O)NC2c1cc(F)ccc1Cl (stereo not shown) [Compound I-333, N-(3-(2-Chloro-5-fluorophenyl)-6-formyl-1-oxoisoindolin-4-yl)-3-fluoro-5-(trifluoromethyl)benzamide]
1000 to 10000 nM | N#Cc1cnc2cc(F)c(-c3cc(NC(=O)c4cc(F)cc(C(F)(F)F)c4)c4c(c3)C(=O)N[C@@H]4c3cc(F)ccc3Cl)cn12 [Compound I-1883]
≤ 100 nM | CNS(=O)(=O)Cc1cc(NC(=O)c2cc(F)cc(C(F)(F)F)c2)c2c(c1)C(=O)N[C@H]2c1cc(F)ccc1Cl [Compound I-1534]
≤ 100 nM | CS(=O)(Cc1cc(NC(=O)c2cc(F)cc(C(F)(F)F)c2)c2c(c1)C(=O)NC2c1cc(F)ccc1Cl)=Nc1cccnc1 (stereo not shown) [Compound I-1486]
≤ 100 nM | N#CC1CN(c2cc(NC(=O)c3cc(F)cc(C(F)(F)F)c3)c3c(c2)C(=O)NC3c2cc(F)ccc2Cl)C1 (stereo not shown) [Compound I-723]
≤ 100 nM | CN1CCN(c2cc(NC(=O)c3cc(F)cc(C(F)(F)F)c3)c3c(c2)C(=O)NC3c2cc(F)ccc2Cl)CC1 (stereo not shown) [Compound I-304]
≤ 100 nM | O=C(Nc1cc(C#Cc2ccncc2)cc2c1C(c1cc(F)ccc1Cl)NC2=O)c1cc(F)cc(C(F)(F)F)c1 (stereo not shown) [Compound I-1224]
≤ 100 nM | N#Cc1nnc2ccc(-c3cc(NC(=O)c4cc(F)cc(C(F)(F)F)c4)c4c(c3)C(=O)NC4c3cc(F)ccc3Cl)cn12 (stereo not shown) [Compound I-1708]
≤ 100 nM | O=C(Nc1cc(C2COC2)cc2c1[C@@H](c1cc(F)ccc1Cl)NC2=O)c1cc(F)cc(C(F)(F)F)c1 [Compound I-589]
≤ 100 nM | C[S+]([O-])c1ccccc1-c1cc(NC(=O)c2cc(F)cc(C(F)(F)F)c2)c2c(c1)C(=O)NC2c1cc(F)ccc1Cl (stereo not shown) [Compound I-1150]
≤ 100 nM | O=C(Nc1cc(-c2ccc3nccn3c2)cc2c1[C@H](c1cc(F)ccc1Cl)NC2=O)c1cc(F)cc(C(F)(F)F)c1 [Compound I-827]
1000 to 10000 nM | O=C1N[C@@H](c2cc(F)ccc2Cl)c2c(NC(=O)N3C[C@@](O)(C(F)(F)F)c4cc(F)ccc43)cc(C(F)F)cc21 (single isomer, unassigned) [Compound I-2578]
100 to 500 nM | NC(=O)c1cnccc1-c1cc(NC(=O)c2cc(F)cc(C(F)(F)F)c2)c2c(c1)C(=O)NC2c1cc(F)ccc1Cl (stereo not shown) [Compound I-1215]
10000 to 100000 nM | CNC(=O)c1cc(NC(=O)c2ccccc2)c2c(c1)C(=O)NC2c1cc(F)ccc1Cl (stereo not shown) [Compound I-1548]

Reference: US12581252B2, “Substituted pyrrolo[3,4-b]pyridines as PI3K-α inhibitors” (Relay Therapeutics, Inc., priority 2020, dated 2026)
